Reference: PMC12423301, “Astrocytic monoamine oxidase B (MAOB)–gamma-aminobutyric acid (GABA) axis as a molecular brake on repair following spinal cord injury” (Signal Transduction and Targeted Therapy, 2025)
Several values for one entry are separate records, joined by “and”; a condition that tells them apart may be missing. Equal entries are not always repeated. Entries after “also recorded” stand apart in the source; their conditions may differ.

How the values were obtained:
[1] = system: rat SCI model; assay: EC / LFB staining of rat spinal cord tissue; format: in vivo, Sprague-Dawley (SD) rats
Procedure: EC staining was performed as previously described.[71] The tissue sections were placed on a microscope slide, allowed to dry for 2 h, and then immersed in acetone for 5 min. The slides were incubated for 10 min at 22 ± 2 °C and then treated with EC solution (MERCK, Kenilworth, NJ, USA) for 30 min at 22 ± 2 °C. After the sections were rinsed with running water, they were placed on 5% iron alum (Sigma-Aldrich, F3629) until the gray matter was observed. The sections were differentiated using borax-ferricyanide solution (Borax, Sigma-Aldrich, 71997; Potassium ferricyanide, Sigma-Aldrich, 702587) and dehydrated using graded ethanol solutions of 70%, 90%, and 100% which were changed twice. The sections were mounted with permanent mounting medium (Fisher Scientific, Hampton, NH, USA) and finally observed under a light microscope (DM 2500, Leica, Wetzlar, Germany). LFB staining was performed as previously described.[70] The myelin sheath of axons in the tissue sections were stained with 1% luxol fast blue (Sigma-Aldrich, L0294) at 60 °C overnight. The sections were rinsed with lithium carbonate (Sigma-Aldrich, 255823) solution and differentiated by 70% alcohol and then observed under a light microscope (IX71, Olympus, Tokyo, Japan).

[2] = in vivo; conditions: Sprague-Dawley, rat
[3] = Preclinical pharmacokinetics in monkeys; format: in vivo, Cynomolgus monkey; conditions: for AUC(0-t) / Vd/F / Tmax / AUC(0-inf) / CL/F / half-life: cynomolgus monkey, in vivo
Procedure: In a pharmacokinetic study, plasma PK parameters were measured after a single oral administration of […]
dose group and at 4 to 6 hours after administration in the 30 mg/kg dose group. In the elimination phase, the […]
Systemic exposure (AUClast) to the test substance was 30587 and 80770 ng*hr/mL, respectively. […]

[4] = system: monkey SCI model; assay: Monkey SCI model: tissue sections and immunohistochemistry; format: in vivo, cynomolgus macaques (Macaca fascicularis)
Procedure: For the nonhuman primate SCI model, female cynomolgus macaques were anesthetized with Zoletil 50 (8–10 mg/kg; Virbac Korea) and isotropy 100. Laminectomy was performed at thoracic level 8 under X-ray guidance, and the SCI model was established using a vessel clip (Micro Serrefine Clamp, 1805501, Fine Science Tools; 60 g pressure, 19 mm) applied for 10 min. After surgery, the monkeys were monitored until full recovery, with precautions taken to prevent hypothermia and dehydration. For pressure ulcers, antibacterial drugs were administered, and sugar therapy was applied as needed.
To determine the appropriate dosing for macaques, interspecies dose translation was performed according to the U.S. FDA’s Guidance for Industry (2005), using body surface area (BSA)-based conversion with species-specific Km values.
On the basis of this calculation, two doses were selected: 3 mg/kg/day (~60% of the HED) for evaluating the minimal effective dose, and 10 mg/kg/day (approximately 2× HED) for assessing upper tolerability and therapeutic margin.
Immunohistochemistry was performed as previously described.[70] The tissue sections were blocked and treated with primary antibodies. After overnight incubation at 4 °C, species-specific fluorescent secondary antibodies were applied for visualization. The tissue sections were then stained with 4’,6-diamidino-2-phenylindole (DAPI) during mounting. This protocol allows a detailed assessment of various cellular markers involved in SCI and recovery processes.

[5] = system: APP/PS1 transgenic mice; assay: Tonic GABA current, neuronal firing and DAO compensation in APP/PS1 mice; format: in vivo, mouse
[6] = system: GABAA receptor-mediated currents from lamina II dorsal horn neurons; assay: Tonic GABA current recording; format: in vivo, rat; conditions: SCI + KDS 2w, PI 10w
[7] = system: diphtheria toxin receptor-inducible transgenic mice; format: in vivo, mouse

Question: With `CS(=O)(=O)O.C[C@H](NCc1ccc(-c2ccc(C(F)(F)F)cc2)cc1)C(N)=O` [KDS2010, (S)-2-(((4’-Trifluoromethylbiphenyl-4-yl)methyl)amino)propanamide methane-sulfonate] as the molecule, how does the “tissue recovery (total cord area, myelinated area)” value ([1]; 10, 20, and 30 mpk, PI 10w) read?
Answer: Its value is “significant tissue recovery”.

Question: And the “total spinal cord, myelinated, gray matter areas and cavity size (EC staining)” value ([1]; SCI + KDS 2w vs SCI + V, PI 10w)?
Answer: The value was “significantly recovered”.

Question: What about the “total spinal cord and myelinated areas” value ([1]; SCI + KDS 1 d/Re, PI 10w) of the same molecule?
Answer: Its value is “significantly recovered”.

Question: What about the “total spinal cord and myelinated areas” value ([1]; SCI+KDS 6w vs SCI+V, PI 14w) of the same molecule?
Answer: The value was “tendency toward larger; also recorded: increasing trend”.

Question: And the MTD ([2]; po)?
Answer: Its MTD is 700 mg/kg.

Question: And the NOAEL at 4 weeks ([2]; female, NOAEL)?
Answer: Its NOAEL at 4 weeks is 30 mg/kg.

Question: What about the NOAEL at 4 weeks ([2]; female, human equivalent dose (HED) of NOAEL) of the same molecule?
Answer: The NOAEL at 4 weeks was 4.84 mg/kg.

Question: And the NOAEL at 4 weeks ([2]; male, NOAEL)?
Answer: The NOAEL at 4 weeks was 50 mg/kg/day.

Question: And the AUC(0-t) [3]?
Answer: The AUC(0-t) was about 13000 ng·h/mL.

Question: What about the Vd/F ([3]; iv, 5 mg/kg) of the same molecule?
Answer: The Vd/F was 3.714 ± 0.609 L/kg.

Question: And the “increase in the AUC, 30 mg/kg vs 10 mg/kg” value ([3]; cynomolgus monkeys)?
Answer: Its value is 5 fold and ~ 4.6 fold.

Question: What about the “increase rate of Cmax vs dose” value ([3]; male monkeys, 10 and 30 mg/kg) of the same molecule?
Answer: The value was “slightly lower”.

Question: And the Tmax ([3]; male)?
Answer: The Tmax was 2 to 6 h.

Question: What about the AUC(0-inf) ([3]; male, po, 10 mg/kg) of the same molecule?
Answer: Its AUC(0-inf) is 43600 ng·h/mL.

Question: What about the CL/F ([3]; male, po, 10 mg/kg) of the same molecule?
Answer: Its CL/F is 3.8 mL/min/kg.

Question: And the Vd/F ([3]; male, po, 10 mg/kg)?
Answer: The Vd/F was 4.49 ± 0.61 L/kg.

Question: What about the half-life ([3]; male, po, 10 mg/kg, t1/2) of the same molecule?
Answer: Its half-life is 13.7 ± 0.48 h.

Question: And the AUC(0-inf) ([3]; male, po, 30 mg/kg)?
Answer: Its AUC(0-inf) is 202000 ± 76800 ng·h/mL.

Question: What about the CL/F ([3]; male, po, 30 mg/kg) of the same molecule?
Answer: Its CL/F is 2.58 mL/min/kg.

Question: And the Vd/F ([3]; male, po, 30 mg/kg)?
Answer: Its Vd/F is 6.27 ± 1.67 L/kg.

Question: What about the half-life ([3]; male, po, 30 mg/kg, t1/2) of the same molecule?
Answer: Its half-life is 16.9 h.

Question: What about the AUC(0-inf) ([3]; male, cynomolgus, po, 10 mg/kg) of the same molecule?
Answer: The AUC(0-inf) was 43600 ng·h/mL.

Question: And the AUC(0-t) ([3]; male, cynomolgus, po, 10 mg/kg)?
Answer: The AUC(0-t) was 30600 ng·h/mL.

Question: And the Tmax ([3]; male, cynomolgus, po, 10 mg/kg)?
Answer: The Tmax was 2 h.

Question: And the half-life ([3]; male, cynomolgus, po, 10 mg/kg, mean half-life (t1/2))?
Answer: Its half-life is 13.7 h.

Question: What about the half-life ([3]; male, cynomolgus, po, 10 mg/kg, t1/2) of the same molecule?
Answer: Its half-life is 13.7 h.

Question: What about the AUC(0-inf) ([3]; male, cynomolgus, po, 30 mg/kg) of the same molecule?
Answer: Its AUC(0-inf) is about 202000 ng·h/mL.

Question: And the AUC(0-t) ([3]; male, cynomolgus, po, 30 mg/kg)?
Answer: Its AUC(0-t) is 80800 ng·h/mL.

Question: And the Tmax ([3]; male, cynomolgus, po, 30 mg/kg)?
Answer: Its Tmax is 4 to 6 h.

Question: And the half-life ([3]; male, cynomolgus, po, 30 mg/kg, mean half-life (t1/2))?
Answer: Its half-life is 31.1 h.

Question: What about the half-life ([3]; male, cynomolgus, po, 30 mg/kg, t1/2) of the same molecule?
Answer: The half-life was about 31.1 h.

Question: And the “hematoma and cavity formation at the injury site” value ([4]; 3 or 10 mpk from the acute phase, PI 5w)?
Answer: Its value is “significantly reduced”.

Question: What about the “MAP2 intensity vs SCI + V” value ([4]; SCI + KDS 3 mpk, PI 5w) of the same molecule?
Answer: Its value is “tended to increase”.

Question: What about the “MAP2 intensity vs SCI + V” value ([4]; SCI + KDS 10 mpk, PI 5w) of the same molecule?
Answer: Its value is “significantly greater”.

Question: And the “astrocytic MAOB” value ([4]; both KDS treatment groups (3 and 10 mpk), PI 5w)?
Answer: Its value is “significantly reduced”.

Question: What about the “pharmacologically active dose (PAD)” value ([4]; cynomolgus macaques, for 5 weeks) of the same molecule?
Answer: The value was 3 mpk.

Question: And the “tonic GABA current in granule cells of the dentate gyrus” value ([5]; 1 mg/kg and 10 mg/kg vs induced control group)?
Answer: Its value is “dose-dependent reduction”.

Question: And the neuronal firing ([5]; 4-week repeated dosing test, at 2 weeks and 4 weeks)?
Answer: The neuronal firing was “maintained at a level similar to that of the normal group”.

Question: What about the “DAO (diamine oxidase) compensatory mechanism” value ([5]; long-term administration) of the same molecule?
Answer: The value was “did not induce”.

Question: What about the “tonic GABA current density” value [6] of the same molecule?
Answer: The value was “significantly recovered”.

Question: And the brain atrophy [7]?
Answer: The brain atrophy was “restored to the level of control group”.

Question: And the “neurofilament (NF)” value [7]?
Answer: Its value is “reducing”.

Question: What about the “neuronal factors NeuN and MAP2” value [7] of the same molecule?
Answer: Its value is “increasing”.

Question: And the survival [7]?
Answer: The survival was “increase in survival”.
